Series [1] relates to NCI-H292. The experiment in a line: cells. The format is functional, cell-based. The settings on record: Homo sapiens, NCI-H292, 72 h.
Description: Growth inhibition of human NCI-H292 cells after 72 hrs in presence of LDL by MTT assay
Series [2] relates to NCI-H292. The experiment in a line: cells. The format is functional, cell-based. The following applies: Homo sapiens, NCI-H292, 72 h. The source holds these as a separate data set.
Description: Growth inhibition of human NCI-H292 cells in FBS containing medium after 72 hrs using compound after sonication in presence of LDL by MTT assay
The test system of series [3] is NCI-H292. Briefly: cells. It is filed as functional, cell-based. The following applies: Homo sapiens, NCI-H292, 72 h. The source holds these as a separate data set.
Description: Growth inhibition of human NCI-H292 cells in LDL depleted FBS containing medium after 72 hrs using compound after sonication in presence of LDL by MTT assay
Series [4] deals with NCI-H292. Briefly: cells. It is filed as functional, cell-based. The settings on record: Homo sapiens, NCI-H292, 72 h. The source holds these as a separate data set.
Description: Growth inhibition of human NCI-H292 cells after 72 hrs by MTT assay
Series [5] is described as follows: Solubility of the compound in aqueous solution at 500 uM in presence of LDL. The following applies: buffer. It is filed as physicochemical.
The nature of series [6]: Drug metabolism in human NCI-H292 cells assessed as compound hydrolysis by measuring increase in 4-amino SAHA formation after 30 mins by HPLC-ESI-MS analysis. It is filed as ADME, cell-based. The following applies: nci-h292, 0.5 h.
Series [7] in a line: Solubility of the compound in aqueous solution at 20 uM. The format is physicochemical. The settings on record: buffer.

These results are taken from ChEMBL document CHEMBL4002620, “Synthesis of Vorinostat and cholesterol conjugate to enhance the cancer cell uptake selectivity” (Bioorg Med Chem Lett, 2017).

In general, IC50 refers to the concentration at which inhibition is half-maximal. Lower therefore signals higher potency. `Nc1ccc(NC(=O)CCCCCCC(=O)NO)cc1`: the IC50 in the series with NCI-H292 [1] turned out to be 14.9 µM; in the series on NCI-H292 [2], 14.7 µM; in the series with NCI-H292 [3] it was 7.8 µM; in the series on NCI-H292 [4], 2.77 µM.
Regarding `CC(C)CCC[C@@H](C)[C@H]1CC[C@H]2[C@@H]3CC=C4C[C@@H](OC(=O)Nc5ccc(NC(=O)CCCCCCC(=O)NO)cc5)CC[C@]4(C)[C@H]3CC[C@]12C`, the IC50 is over 500 µM in the series with NCI-H292 [1], over 500 µM in the series on NCI-H292 [2], 91.2 µM in the series with NCI-H292 [3] and over 500 µM with NCI-H292 [4]. For the same molecule, the values for the solubility result in series [5] and in series [7] were “Soluble” and “Insoluble”, respectively. The Drug metabolism entry in series [6] is “Metabolite_Detected”.
